In patent US11980630B2 (priority 2017, dated 2024):
Entries after “also recorded” stand apart in the source; their conditions may differ. Read-outs that look alike come from different tables or passages of the source.

Legend:
[1] = tested on: EBOV (Makona); assay: microbe, parasite or virus in culture; format: cell-based, Ebola virus; settings: for EC50: Zaire ebolavirus, HeLa
[2] = tested on: SUDV (Gulu); assay: microbe, parasite or virus in culture; format: cell-based, Sudan virus; settings: for EC50: Sudan ebolavirus, HeLa
[3] = tested on: MARV (Ci67); assay: organism not typed; format: cell-based, Marburg virus; settings: for EC50: HeLa
[4] = tested on: recombinant reporter EBOV; assay: microbe, parasite or virus in culture; format: cell-based, Ebola virus; settings: for EC50: Zaire ebolavirus
[5] = tested on: Lassa Virus; assay: microbe, parasite or virus in culture; format: cell-based; settings: Mammarenavirus lassaense, Huh-7, read-out: Lassa Virus EC50
[6] = tested on: Rift Valley Fever; assay: microbe, parasite or virus in culture; format: cell-based; settings: Huh-7, read-out: Rift Valley Fever EC50
[7] = tested on: HeLa cells; settings: human
[8] = tested on: Huh7 cells; settings: human
[9] = biological target: SARS-CoV nsp14 (N7 MTase) (Severe acute respiratory syndrome coronavirus, UniProt P0C6X7); format: biochemical
[10] = biological target: T1, Zika virus NS5 MTase (Zika virus, UniProt A0A024B7W1); assay: biochemical
T1 construct: Zika virus NS5 MTase: 500 nM

[11] = biological target: T2, Dengue virus NS5 MTase (Dengue virus type 2, UniProt P29990); assay: biochemical
T2 construct: Dengue virus NS5 MTase: 500 nM
T2 sequence (P29990 2493-2755 limits assumed): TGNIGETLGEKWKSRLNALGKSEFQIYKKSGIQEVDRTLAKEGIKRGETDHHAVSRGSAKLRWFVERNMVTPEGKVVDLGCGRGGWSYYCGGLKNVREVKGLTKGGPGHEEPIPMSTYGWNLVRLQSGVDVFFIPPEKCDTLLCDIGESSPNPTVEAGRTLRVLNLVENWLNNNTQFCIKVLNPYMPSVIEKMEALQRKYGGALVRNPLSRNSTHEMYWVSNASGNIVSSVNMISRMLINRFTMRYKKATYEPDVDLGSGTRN

[12] = biological target: T3, hMPV MTase (Human metapneumovirus, UniProt Q6WB93); assay: biochemical; format: biochemical
T3 construct: hMPV MTase: 1 μM

[13] = biological target: human N7 MTase (hN7 or RNMT) (Homo sapiens, UniProt O43148); assay: biochemical
[14] = biological target: T4, RSV MTase (Human respiratory syncytial virus A, UniProt P28887); assay: biochemical; format: biochemical
T4 construct: RSV MTase: 4 μM

[15] = biological target: MERS polymerase complex (12HC/7HC8) (Middle East respiratory syndrome-related coronavirus, UniProt K9N7C7); format: biochemical
[16] = biological target: SARS polymerase complex (12HC/7HC8) (Severe acute respiratory syndrome coronavirus, UniProt P0C6X7); format: biochemical
[17] = in vitro; settings: human
[18] = tested on: EBOV; settings: cited from earlier work
[19] = tested on: MARV; settings: cited from earlier work
[20] = read-out: EBOV EC50 (50% inhibition of virus-induced CPE)
[21] = read-out: SUDV EC50 (50% inhibition of virus-induced CPE)
[22] = read-out: MARV EC50 (50% inhibition of virus-induced CPE)
[23] = Huh-7, read-out: EC50 against EBOV in Huh7 cells

T3 sequence (Q6WB93 1599-2005 limits assumed): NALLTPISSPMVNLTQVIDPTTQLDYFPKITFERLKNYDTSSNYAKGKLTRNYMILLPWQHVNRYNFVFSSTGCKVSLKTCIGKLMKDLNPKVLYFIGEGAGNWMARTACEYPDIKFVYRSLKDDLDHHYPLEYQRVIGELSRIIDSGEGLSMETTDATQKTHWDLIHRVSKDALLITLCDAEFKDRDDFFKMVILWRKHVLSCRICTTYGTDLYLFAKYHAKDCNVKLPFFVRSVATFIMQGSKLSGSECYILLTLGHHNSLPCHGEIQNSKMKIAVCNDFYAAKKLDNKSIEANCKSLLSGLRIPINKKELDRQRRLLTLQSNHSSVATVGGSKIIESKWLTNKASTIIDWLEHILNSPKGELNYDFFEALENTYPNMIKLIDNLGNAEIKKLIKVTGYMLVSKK
T1 sequence (A0A024B7W1 2521-2785 limits assumed): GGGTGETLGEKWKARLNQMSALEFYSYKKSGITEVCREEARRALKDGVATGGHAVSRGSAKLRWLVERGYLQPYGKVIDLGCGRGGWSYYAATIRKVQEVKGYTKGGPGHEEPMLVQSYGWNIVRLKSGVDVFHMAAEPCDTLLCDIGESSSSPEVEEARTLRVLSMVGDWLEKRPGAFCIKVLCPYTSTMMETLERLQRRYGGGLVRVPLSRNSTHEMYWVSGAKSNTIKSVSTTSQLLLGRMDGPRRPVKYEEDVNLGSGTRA
Sequence of human N7 MTase (hN7 or RNMT) (O43148 whole entry): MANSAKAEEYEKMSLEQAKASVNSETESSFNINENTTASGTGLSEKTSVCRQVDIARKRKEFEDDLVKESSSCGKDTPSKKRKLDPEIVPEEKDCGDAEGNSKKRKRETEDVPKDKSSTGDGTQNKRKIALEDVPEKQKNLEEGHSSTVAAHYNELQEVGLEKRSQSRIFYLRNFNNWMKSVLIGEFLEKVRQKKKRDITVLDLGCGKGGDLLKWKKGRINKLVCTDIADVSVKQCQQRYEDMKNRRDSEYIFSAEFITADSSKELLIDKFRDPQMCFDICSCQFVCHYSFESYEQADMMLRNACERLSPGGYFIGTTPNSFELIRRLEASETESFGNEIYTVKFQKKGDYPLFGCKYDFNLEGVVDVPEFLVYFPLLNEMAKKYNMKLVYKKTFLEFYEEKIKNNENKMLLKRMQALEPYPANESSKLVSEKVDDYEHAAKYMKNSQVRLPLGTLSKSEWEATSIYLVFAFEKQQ
Sequence of MERS polymerase complex (12HC/7HC8) (K9N7C7 4378-5310 limits assumed): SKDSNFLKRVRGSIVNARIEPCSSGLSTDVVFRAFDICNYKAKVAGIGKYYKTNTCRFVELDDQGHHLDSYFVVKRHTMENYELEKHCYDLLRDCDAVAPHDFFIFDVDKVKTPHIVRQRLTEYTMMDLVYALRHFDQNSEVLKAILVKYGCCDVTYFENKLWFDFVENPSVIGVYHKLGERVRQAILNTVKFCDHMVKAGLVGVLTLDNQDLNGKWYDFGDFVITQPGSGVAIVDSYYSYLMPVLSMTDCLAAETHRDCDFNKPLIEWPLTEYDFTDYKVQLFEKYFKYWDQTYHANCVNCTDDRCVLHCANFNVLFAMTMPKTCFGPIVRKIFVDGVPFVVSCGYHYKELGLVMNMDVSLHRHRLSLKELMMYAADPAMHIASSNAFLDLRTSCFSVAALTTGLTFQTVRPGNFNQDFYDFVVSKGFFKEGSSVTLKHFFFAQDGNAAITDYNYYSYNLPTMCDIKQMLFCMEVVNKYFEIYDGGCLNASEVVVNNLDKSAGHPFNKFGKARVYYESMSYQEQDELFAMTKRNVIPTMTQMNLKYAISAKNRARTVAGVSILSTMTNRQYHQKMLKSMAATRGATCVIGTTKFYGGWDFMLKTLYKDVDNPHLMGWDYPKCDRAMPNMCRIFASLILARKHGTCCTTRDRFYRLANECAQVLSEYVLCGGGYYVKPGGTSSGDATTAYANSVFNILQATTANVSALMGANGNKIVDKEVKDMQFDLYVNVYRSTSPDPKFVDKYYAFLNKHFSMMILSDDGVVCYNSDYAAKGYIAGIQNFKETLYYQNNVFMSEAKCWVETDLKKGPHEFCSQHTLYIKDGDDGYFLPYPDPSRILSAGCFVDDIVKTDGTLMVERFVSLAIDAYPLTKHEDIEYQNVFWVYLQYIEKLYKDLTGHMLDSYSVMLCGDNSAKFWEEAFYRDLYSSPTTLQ
Sequence of MERS polymerase complex (12HC/7HC8) (K9N7C7 3846-3928 partner limits assumed): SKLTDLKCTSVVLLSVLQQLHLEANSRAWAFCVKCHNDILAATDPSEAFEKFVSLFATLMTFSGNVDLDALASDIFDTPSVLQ
Sequence of MERS polymerase complex (12HC/7HC8) (K9N7C7 3929-4127 partner limits assumed): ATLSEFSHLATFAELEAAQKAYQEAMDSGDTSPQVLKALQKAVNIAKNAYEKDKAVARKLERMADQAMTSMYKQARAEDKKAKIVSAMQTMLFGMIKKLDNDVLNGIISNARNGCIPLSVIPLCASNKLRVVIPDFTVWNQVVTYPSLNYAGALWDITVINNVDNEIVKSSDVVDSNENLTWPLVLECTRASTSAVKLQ
T4 sequence (P28887 1820-2008 limits assumed): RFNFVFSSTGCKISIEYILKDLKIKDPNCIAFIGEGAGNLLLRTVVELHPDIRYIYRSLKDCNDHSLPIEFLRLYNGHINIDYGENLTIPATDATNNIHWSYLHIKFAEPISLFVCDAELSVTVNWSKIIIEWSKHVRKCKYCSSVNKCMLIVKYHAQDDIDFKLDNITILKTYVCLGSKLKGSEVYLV

Row | Structure (SMILES) | Antiviral activity against EBOV [1] | EC50 [1, 20] | Antiviral activity against SUDV [2] | EC50 [2, 21] | Antiviral activity against MARV [3] | EC50 [3, 22] | Antiviral activity against recombinant reporter EBOV [4] | EC50 ([4]; Huh-7, read-out: EBOV EC50) | EC50 [4, 23] | EC50 [5] | EC50 [6] | CC50 [7] | CC50 [8] | also measured
1 | COc1nc(N)ncc1-c1cn(COCCO)cn1 [Compound 1] | no detectable activity | > 100 µM | no detectable activity | > 100 µM | no detectable activity | > 100 µM | exhibited antiviral activity | 2.2 ± 0.3 µM | 2.2 ± 0.3 µM | > 50 µM | > 50 µM | > 100 µM | > 50 µM | –
2 | COc1nc(N)ncc1-c1cn(COCCOP(=O)(O)OP(=O)(O)OP(=O)(O)O)cn1 [Compound 2MR04] | – | – | – | – | – | – | – | – | – | – | – | – | – | Inhibition of SARS-nsp14 MTase activity [9]: inhibits; Inhibition of Zika virus MTase activity [10]: inhibits; IC50 ([10]; IC50 Zika NS5-MTase): ~22 µM; IC50 ([10]; IC50 in another testing (FIG. 15, effect on Zika Virus)): ~17 µM; IC50 [11]: ~22 µM; Inhibition of Dengue virus NS5 MTase activity [11]: inhibits; IC50 [12]: ~31 µM; Inhibition of hMPV MTase activity [12]: strongly inhibiting; also recorded: inhibits; IC50 [13]: ~49 µM; Inhibition of RNMT (RNA Guanine-7 Methyltransferase) [13]: not inhibited; IC50 [14]: ~18 µM; Inhibition of RSV MTase activity [14]: strongly inhibiting; Reduction of product / oligonucleotide synthesis by MERS polymerase [15]: as effective as the 3′dGTP inhibitor; also recorded: as effective, not more effective, in reduction of oligonucleotide synthesis; Reduction of product / oligonucleotide synthesis by SARS polymerase [16]: comparable to the other inhibitors
3 | COc1nc(N)ncc1-c1cn(COCCOC(C)=O)cn1 [Compound 2] | – | 44 ± 13 µM | – | 20 ± 10 µM | – | 70 ± 27 µM | – | – | – | – | – | > 100 µM | – | CC50 [17]: > 100 µM
4 | CCC(CC)OC(=O)[C@@H](C)N[P@](=O)(OCCOCn1cnc(-c2cnc(N)nc2OC)c1)Oc1ccccc1 [Compound 3] | Activity against all three viruses was observed | 29 ± 9 µM | best activity against SUDV | 7 ± 2 µM | Activity against all three viruses was observed | 62 ± 13 µM | active against EBOV at a similar concentration; also recorded: exhibited antiviral activity | 27.2 ± 2.2 µM | 27.2 ± 2.2 µM | > 50 µM | > 50 µM | > 100 µM | > 50 µM | EC50 ([1]; read-out: EC50 EBOV in Hela cells (FIGS. 3-5)): 29.1 µM; EC50 ([1]; read-out: EC50 against EBOV in HeLa cells): 29 ± 9 µM; EC50 ([2]; read-out: EC50 SUDV in Hela cells (FIGS. 3-5)): 6.85 µM; EC50 ([2]; read-out: EC50 against SUDV in HeLa cells): 7 ± 2 µM; EC50 ([3]; read-out: EC50 MARV in Hela cells (FIGS. 3-5)): 62.3 µM; Potency of McGuigan prodrug relative to compound 1 [4]: ~10 fold
5 | CCC(CC)COC(=O)[C@H](C)N[P@](=O)(OC[C@H]1O[C@@](C#N)(c2ccc3c(N)ncnn23)[C@H](O)[C@@H]1O)Oc1ccccc1 [GS-5734] | – | – | – | – | – | – | – | – | – | – | – | – | – | Activity against EBOV (literature, words) [18]: very potent activity; Activity against MARV (literature, words) [19]: very potent activity
